Test results as given in US12319676B2, “Substituted amide compounds useful as farnesoid X receptor modulators” (BRISTOL-MYERS SQUIBB COMPANY, priority 2019, dated 2025).
pEC50: −log10 of the molar value.

target: T1, human FXR (Homo sapiens, UniProt Q96RI1); experiment: transient human FXR/Gal4-luciferase reporter assay; assay type: cell-based; conditions: Gal4-hFXR fusion construct, luciferase reporter in HEK293 cells; overnight incubation; response as percentage of 8 μM GW-4064 control
T1 construct: expressed in transfected cells; host or cells: HEK293 cells stably carrying a 5xGal4 response element-luciferase reporter, transiently transfected with pcDNA3.1-Gal4-FXR
T1 sequence (Q96RI1 262-486 limits assumed): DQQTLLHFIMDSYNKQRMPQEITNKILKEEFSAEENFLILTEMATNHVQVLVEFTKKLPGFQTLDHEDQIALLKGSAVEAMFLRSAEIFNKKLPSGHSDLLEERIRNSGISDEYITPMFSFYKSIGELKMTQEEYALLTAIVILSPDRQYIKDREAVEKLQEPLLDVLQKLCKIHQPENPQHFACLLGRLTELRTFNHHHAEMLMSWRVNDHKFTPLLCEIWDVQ
Method in brief: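 HEK293 cells stably carrying a 5×Gal4-response-element firefly luciferase reporter were transiently transfected with a Gal4 DBD-human FXR LBD fusion, then treated overnight with compounds at 37 °C. Steady-Glo luminescence, minus DMSO background, was expressed as percent of the response to 8 μM GW-4064.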

| pEC50 | Compound |
| --- | --- |
| 6.73 | N#Cc1cc(F)cc(N(CC23CCC(c4nc(C5CC5)no4)(CC2)CC3)C(=O)C23CC(F)(C2)C3)c1 [Example 62, N-(3-cyano-5-fluorophenyl)-N-((4-(3-cyclopropyl-1,2,4-oxadiazol-5-yl)bicyclo[2.2.2]octan-1-yl)methyl)-3-fluorobicyclo[1.1.1]pentane-1-carboxamide] |
| 5.98 | N#Cc1cc(F)cc(N(CC23CCC(c4nc(C5CC5)no4)(CC2)CC3)C(=O)[C@H]2C[C@](O)(C(F)(F)F)C2)c1 [Example 63, (1S,3S)-N-(3-cyano-5-fluorophenyl)-N-((4-(3-cyclopropyl 1,2,4-oxadiazol-5-yl)bicyclo[2.2.2]octan-1-yl)methyl)-3-hydroxy-3-(trifluoromethyl)cyclobutane-1-carboxamide] |
| 6.28 | N#Cc1cc(F)cc(N(CC23CCC(c4nc(C5CC5)no4)(CC2)CC3)C(=O)C2CC(F)(F)C2)c1 [Example 64, N-(3-cyano-5-fluorophenyl)-N-((4-(3-cyclopropyl-1,2,4-oxadiazol-5-yl)bicyclo[2.2.2]octan-1-yl)methyl)-3,3-difluorocyclobutane-1-carboxamide] |
| 5.89 | CS(=O)(=O)Nc1cccc(N(CC23CCC(c4nc(C5CC5)no4)(CC2)CC3)C(=O)C2CC(F)(F)C2)c1 [Example 65, N-((4-(3-cyclopropyl-1,2,4-oxadiazol-5-yl)bicyclo[2.2.2]octan-1-yl)methyl)-3,3-difluoro-N-(3-(methylsulfonamido)phenyl)cyclobutane-1-carboxamide] |
| 5.40 | CS(=O)(=O)Nc1cccc(N(CC23CCC(c4nc(C5CC5)no4)(CC2)CC3)C(=O)C23CC(F)(C2)C3)c1 [Example 66, N-((4-(3-cyclopropyl-1,2,4-oxadiazol-5-yl)bicyclo[2.2.2]octan-1-yl)methyl)-3-fluoro-N-(3-(methylsulfonamido)phenyl)bicyclo[1.1.1]pentane-1-carboxamide] |
| 5.40 | CS(=O)(=O)Nc1cccc(N(CC23CCC(c4nc(C5CC5)no4)(CC2)CC3)C(=O)[C@H]2C[C@](O)(C(F)(F)F)C2)c1 [Example 67, (1S,3S)-N-((4-(3-cyclopropyl-1,2,4-oxadiazol-5-yl)bicyclo[2.2.2]octan-1-yl)methyl)-3-hydroxy-N-(3-(methylsulfonamido)phenyl)-3-(trifluoromethyl)cyclobutane-1-carboxamide] |
| 5.83 | CS(=O)(=O)c1cccc(N(CC23CCC(c4nc(C5CC5)no4)(CC2)CC3)C(=O)C23CC(F)(C2)C3)c1 [Example 68, N-((4-(3-cyclopropyl-1,2,4-oxadiazol-5-yl)bicyclo[2.2.2]octan-1-yl)methyl)-3-fluoro-N-(3-(methylsulfonyl)phenyl)bicyclo[1.1.1]pentane-1-carboxamide] |
| 5.40 | CS(=O)(=O)c1cccc(N(CC23CCC(c4nc(C5CC5)no4)(CC2)CC3)C(=O)C2CCC(F)(F)CC2)c1 [Example 69, N-((4-(3-cyclopropyl-1,2,4-oxadiazol-5-yl)bicyclo[2.2.2]octan-1-yl)methyl)-4,4-difluoro-N-(3-(methylsulfonyl)phenyl)cyclohexane-1-carboxamide] |
| 5.70 | CC(N(C(=O)C12CC(F)(C1)C2)c1cccc(C#N)c1)C12CCC(c3nc(C4CC4)no3)(CC1)CC2 (stereo not shown) [Example 70, N-(3-cyanophenyl)-N-(1-(4-(3-cyclopropyl-1,2,4-oxadiazol-5-yl)bicyclo[2.2.2]octan-1-yl)ethyl)-3-fluorobicyclo[1.1.1]pentane-1-carboxamide] |
| 6.00 | Cn1nc(C2CC2)cc1C12CCC(CN(C(=O)C34CC(F)(C3)C4)c3cccc(C#N)c3)(CC1)CC2 [Example 72, N-(3-cyanophenyl)-N-((4-(3-cyclopropyl-1-methyl-1H-pyrazol-5-yl)bicyclo[2.2.2]octan-1-yl)methyl)-3-fluorobicyclo[1.1.1]pentane-1-carboxamide] |
| 5.67 | Cn1nc(C2CC2)cc1C12CCC(CN(C(=O)C3CCC(F)(F)CC3)c3cccc(C#N)c3)(CC1)CC2 [Example 73, N-(3-cyanophenyl)-N-((4-(3-cyclopropyl-1-methyl-1H-pyrazol-5-yl)bicyclo[2.2.2]octan-1-yl)methyl)-4,4-difluorocyclohexane-1-carboxamide] |
| 5.87 | Cn1nc(C2CC2)cc1C12CCC(CN(c3cccc(C#N)c3)C(=O)[C@H]3C[C@@](C)(O)C3)(CC1)CC2 [Example 74, (1S,3S)-N-(3-cyanophenyl)-N-((4-(3-cyclopropyl-1-methyl-1H-pyrazol-5-yl)bicyclo[2.2.2]octan-1-yl)methyl)-3-hydroxy-3-methylcyclobutane-1-carboxamide] |
| 5.86 | Cn1nc(C2CC2)cc1C12CCC(CN(c3cccc(C#N)c3)C(=O)[C@H]3C[C@](O)(C(F)(F)F)C3)(CC1)CC2 [Example 75, (1S,3S)-N-(3-cyanophenyl)-N-((4-(3-cyclopropyl-1-methyl-1H-pyrazol-5-yl)bicyclo[2.2.2]octan-1-yl)methyl)-3-hydroxy-3-(trifluoromethyl)cyclobutane-1-carboxamide] |
| 5.40 | Cn1nc(C2CC2)cc1C12CCC(CN(c3cccc(S(C)(=O)=O)c3)C(=O)[C@H]3C[C@](O)(C(F)(F)F)C3)(CC1)CC2 [Example 76, (1S,3S)—N-((4-(3-cyclopropyl-1-methyl-1H-pyrazol-5-yl)bicyclo[2.2.2]octan-1-yl)methyl)-3-hydroxy-N-(3-(methylsulfonyl)phenyl)-3-(trifluoromethyl)cyclobutane-1-carboxamide] |
| 5.40 | Cn1nc(C2CC2)cc1C12CCC(CN(C(=O)C3CCC(F)(F)CC3)c3cccc(S(C)(=O)=O)c3)(CC1)CC2 [Example 77, N-((4-(3-cyclopropyl-1-methyl-1H-pyrazol-5-yl)bicyclo[2.2.2]octan-1-yl)methyl)-4,4-difluoro-N-(3-(methylsulfonyl)phenyl) cyclohexane-1-carboxamide] |
| 5.40 | Cn1nc(C2CC2)cc1C12CCC(CN(C(=O)C34CC(F)(C3)C4)c3cccc(S(C)(=O)=O)c3)(CC1)CC2 [Example 78, N-((4-(3-cyclopropyl-1-methyl-1H-pyrazol-5-yl)bicyclo[2.2.2]octan-1-yl)methyl)-3-fluoro-N-(3-(methylsulfonyl)phenyl)bicyclo[1.1.1]pentane-1-carboxamide] |
| 5.98 | COC(=O)COc1cccc(N(CC23CCC(c4ccc(N(C)C)c(Cl)c4)(CC2)CC3)C(=O)C2CCCCC2)c1 [Example 79, Methyl 2-(3-(N-((4-(3-chloro-4-(dimethylamino)phenyl)bicyclo[2.2.2]octan-1-yl)methyl)cyclohexanecarboxamido)phenoxy) acetate] |
| 5.80 | COC(=O)COc1cccc(N(CC23CCC(c4ccc(N(C)C)cc4)(CC2)CC3)C(=O)C2CCCCC2)c1 [Example 80, Methyl 2-(3-(N-((4-(4-(dimethylamino)phenyl)bicyclo[2.2.2]octan-1-yl)methyl)cyclohexanecarboxamido)phenoxy) acetate] |
| 5.36 | COC(=O)COc1cccc(N(CC23CCC(c4ccc5c(cnn5C)c4)(CC2)OC3)C(=O)C2CCOCC2)c1 [Example 81, Methyl 2-(3-(N-((1-(1-methyl-1H-indazol-5-yl)-2-oxabicyclo[2.2.2]octan-4-yl)methyl)tetrahydro-2H-pyran-4-carboxamido)phenoxy) acetate] |
| 5.52 | Cc1noc(C23CCC(CN(C(=O)C4CCCCC4)c4cccc(C(=O)Nc5nccs5)c4)(CC2)CC3)n1 [Example 82, 3-(N-((4-(3-methyl-1,2,4-oxadiazol-5-yl)bicyclo[2.2.2]octan-1-yl)methyl)cyclohexanecarboxamido)-N-(thiazol-2-yl)benzamide] |
| 5.95 | CCOc1ccc(Nc2cccc(N(CC34CCC(c5nc(C(C)(C)C)no5)(CC3)CC4)C(=O)C34CC(F)(C3)C4)c2)cc1 [Example 83, N-((4-(3-(tert-butyl)-1,2,4-oxadiazol-5-yl)bicyclo[2.2.2]octan-1-yl)methyl)-N-(3-((4-ethoxyphenyl)amino)phenyl)-3-fluorobicyclo[1.1.1]pentane-1-carboxamide] |
| 7.08 | CC(C)(C)c1nc(C23CCC(CN(C(=O)C45CC(F)(C4)C5)c4cccc(Nc5ccc(OC(F)F)cc5)c4)(CC2)CC3)no1 [Example 84, N-((4-(5-(tert-butyl)-1,2,4-oxadiazol-3-yl)bicyclo[2.2.2]octan-1-yl)methyl)-N-(3-((4-(difluoromethoxy)phenyl)amino)phenyl)-3-fluorobicyclo[1.1.1]pentane-1-carboxamide] |
| 6.22 | CCOc1ccc(Nc2cccc(N(CC34CCC(c5noc(C(C)(C)C)n5)(CC3)CC4)C(=O)C34CC(F)(C3)C4)c2)cc1 [Example 85, N-((4-(5-(tert-butyl)-1,2,4-oxidial-3-yl)bicyclo[2.2.2]octan-1-yl)methyl)-N-(3-((4-ethoxyphenyl)amino)phenyl)-3-fluorobicyclo[1.1.1]pentane-1-carboxamide] |
| 6.28 | CCc1ccc(Nc2cccc(N(CC34CCC(c5noc(C(C)(C)C)n5)(CC3)CC4)C(=O)C34CC(F)(C3)C4)c2)cc1 [Example 86, N-((4-(5-(tert-butyl)-1,2,4-oxadiazol-3-yl)bicyclo[2.2.2]octan-1-yl)methyl)-N-(3-((4-ethylphenyl)amino)phenyl)-3-fluorobicyclo[1.1.]pentane-1-carboxamide] |
| 5.70 | CC(C)(C)c1nc(C23CCC(CN(C(=O)C45CC(F)(C4)C5)c4cccc(Nc5ccc(C(F)(F)F)cc5)c4)(CC2)CC3)no1 [Example 87, N-((4-(5-(tert-butyl)-1,2,4-oxadiazol-3-yl)bicyclo[2.2.2]octan-1-yl)methyl)-3-fluoro-N-(3-((4-(trifluoromethyl)phenyl)amino)phenyl)bicyclo[1.1.1]pentane-1-carboxamide] |
